The values below come from EP3290412A1, “HIV-1 NUCLEOCAPSID INHIBITORS” (Università degli Studi di Siena, priority 2016, dated 2018).

Read-outs that look alike come from different tables or passages of the source. Bounds are passed on as bounds.

One assay concerns the target NC(11-55) (Human immunodeficiency virus type 1, UniProt P12493). The assay can be described thus: NC inhibition assay (NC-induced cTAR DNA destabilization, fluorescence). Format: biochemical, HIV-1. The note with it: for inhibition at 100 µM: single point screening, positive = >25% inhibition at 100µM. The method in brief:
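Doubly labelled cTAR (0.1 µM, Alexa488/Dabcyl) pre-complexed with 1 µM Zn-loaded NC(11-55) for 15 min, then compound added for a further 15 min; run at 20 °C in Tris-HCl pH 7.5, 30 mM NaCl, 0.2 mM MgCl2. Fluorescence read at ex 480/em 520 nm. IC50 taken from dose-response fit of % inhibition of NC-induced fluorescence increase.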

The target in assay [1] is T1, full length (1-55) HIV-1 NCp7 (Human immunodeficiency virus type 1 group M subtype B, UniProt P12493).
T1 construct: recombinant full length (1-55) HIV-1 NCp7 proteins; made in house
The assay can be described thus: Electromobility Shift Assay (EMSA), competition for ssDNA binding. The note with it: NCp7 300 nM, M13mp18 ssDNA; positive = >25% inhibition at 100µM. In a few lines:
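Recombinant NL4-3 NCp7 (300 nM in the pre-mix) was combined with compound in 20 mM Tris-HCl pH 7.4, 2 mM MgCl2, 100 mM NaCl, 1 mM DTT, then M13mp18 ssDNA was added for 25 min at 37 °C. Complexes were run on 1% agarose/0.5x TBE and stained with SybrGold. IC50 is the concentration at which bound ssDNA migrated 50% of the bound–unbound distance (triplicate).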
For orientation: Mobility shift assays separate free from complexed probe on a gel.

Assay [2] concerns HIV-1 reference strain NL4-3. The assay can be described thus: MonoCycle assay (TZM-bl cells). It counts as cell-based. As to the method: MonoCycle assay is a cell based assay allowing the evaluation of antiviral activity of HIV-1 inhibitors targeting the early steps of HIV-1 life cycle such as entry, uncoating of viral particles, reverse transcription and integration. The assay consists in the infection of TZM-bl cells (20,000/well) with the HIV-1 reference strain NL4-3 in presence of serial five-fold dilutions of the investigational inhibitors. After 48 hours, cells were lysed adding 40 µl of Glo Lysis Buffer (Promega) to each well for 5 minutes, then 40 µl of Brighy-Glo Luciferase Reagent (Promega) were added to each well for relative luminescence units (RLU) counting using Glo-Max Multi Detection System (Promega). RLU values from each well were elaborated using the GraphPad v5.0 software to calculate the IC50 of each compound.

The mark [3] stands for this setting: Human immunodeficiency virus 1, NL43, TZM-bl, 48 h, read-out: Mono Cycle IC50 nM.
The mark [4] stands for this setting: Human immunodeficiency virus 1, NL43, TZM-bl cells, NL4-3, 48 hours, read-out: Mono Cycle IC50.
Setting [5] is: cTAR DNA 0.1 µM, 1 µM NC(11-55), 20 °C, pH 7.5, read-out: NC inhibition IC50.

Consider `CN1CCCC(CNC(=O)c2nc(-c3ccccn3)nc(O)c2O)C1` (centres unmarked) [Compound 7, 5,6-dihydroxy-N-((1-methylpiperidin-3 - yl)methyl)-2-(pyridin-2-yl)pyrimidine-4-carboxamide], for which, on NC(11-55), the IC50 (as a rule, the point on the concentration scale where inhibition reaches its midpoint) was determined as 335 µM and the inhibition (usually the relative decrease from the control value, in per cent) at 100 µM was above 25%. Further, in assay [1], the EMSA screening results was “Positive (A compound showing >25% inhibition when tested at 100µM concentration is considered as "positive")”. For the same molecule, the IC50 in assay [2] (setting [3]) is above 50000 nM.

Consider `COc1cc(-c2nc(O)c(O)c(C(=O)N[C@H](C)C3CCCCC3)n2)nc2ccccc12` [Compound 68, N-[(1R)-1-cyclohexylethyl]-2-(4-methoxyquinolin-2-yl)-5,6-bis(oxidanyl)pyrimidine-4-carboxamide], for which the inhibition at 100 µM at NC(11-55) was above 25%. In assay [1], the EMSA screening results was “Positive (A compound showing >25% inhibition when tested at 100µM concentration is considered as "positive")”. In assay [2] (setting [4]), the IC50 stood at 44300 nM.

As for `C[C@@H](NC(=O)c1nc(-c2ccc(NC(=O)OC(C)(C)C)cn2)nc(O)c1O)C1CCCCC1` [Compound 61, tert-butyl (R)-(6-(4-((1-cyclohexylethyl)carbamoyl)-5,6-dihydroxypyrimidin-2-yl)pyridin-3-yl)carbamate], the IC50 is 17 µM at NC(11-55) (setting [5]) and 7180 nM in assay [2] (setting [3]). In addition, on NC(11-55), the inhibition at 100 µM is above 25%. The EMSA screening results in assay [1] is “Positive (A compound showing >25% inhibition when tested at 100µM concentration is considered as "positive")”.

Consider `CCNS(=O)(=O)c1ccc(-c2nc(O)c(O)c(C(=O)N[C@H](C)C3CCCCC3)n2)nc1` [Compound 89, (R)-N-(1-cyclohexylethyl)-2-(5-(N-ethylsulfamoyl)pyridin-2-yl)-5,6-dihydroxypyrimidine-4-carboxamide], for which, at NC(11-55), the IC50 amounted to 28 µM and the inhibition at 100 µM is above 25%. For the same molecule, the EMSA screening results in assay [1] is on record as “Negative”. In assay [2] (setting [3]), the IC50 is above 50000 nM.

Take `C[C@@H](NC(=O)c1nc(-c2cccc(C(F)(F)F)n2)nc(O)c1O)C1CCCCC1` [Compound 44, (R)-N-(1-cyclohexylethyl)-5,6-dihydroxy-2-(6-(trifluoromethyl)pyridin-2-yl)pyrimidine-4-carboxamide]: the inhibition at 100 µM against NC(11-55) is above 25%. Further, in assay [1], the EMSA screening results is “Positive (A compound showing >25% inhibition when tested at 100µM concentration is considered as "positive")”. For the same molecule, in assay [2] (setting [4]), the IC50 was above 50000 nM.

On to `COc1ccnc(-c2nc(O)c(O)c(C(=O)N[C@H](C)C3CCCCC3)n2)c1` [Compound 28, (R)-N-(1-cyclohexylethyl)-5,6-dihydroxy-2-(4-methoxypyridin-2-yl)pyrimidine-4-carboxamide], for which the IC50 stood at 22 µM against NC(11-55) and 34300 nM in assay [2] (setting [3]). The inhibition at 100 µM on NC(11-55) was above 25%. Further, the EMSA screening results in assay [1] is “Positive (A compound showing >25% inhibition when tested at 100µM concentration is considered as "positive")”.

At NC(11-55), `O=C(NC1(C2CCCCC2)CC1)c1nc(-c2ccccn2)nc(O)c1O` [Compound 24, N-(1-cyclohexylcyclopropyl)-5,6-dihydroxy-2-(pyridin-2-yl)pyrimidine-4-carboxamide] came in with an IC50 of 22.5 µM and an inhibition at 100 µM above 25%. Also, in assay [1], the EMSA screening results was “Positive (A compound showing >25% inhibition when tested at 100µM concentration is considered as "positive")”. For the same molecule, the IC50 in assay [2] (setting [3]) worked out at 3610 nM.

On NC(11-55), `C[C@H](NC(=O)c1nc(-c2ccc(N)cn2)nc(O)c1O)C1CCCCC1` [Compound 81, (S)-2-(5-aminopyridin-2-yl)-N-(1-cyclohexylethyl)-5,6-dihydroxypyrimidine-4-carboxamide] returned an IC50 of 22 µM and an inhibition at 100 µM above 25%. The EMSA screening results in assay [1] was “Positive (A compound showing >25% inhibition when tested at 100µM concentration is considered as "positive")”. The IC50 in assay [2] (setting [3]) came out at 2290 nM.

At NC(11-55), `C[C@@H](NC(=O)c1nc(-c2cc(N3CCN(C)CC3)ccn2)nc(O)c1O)C1CCCCC1` [Compound 76, (R)-N-(1-cyclohexylethyl)-5,6-dihydroxy-2-(4-(4-methylpiperazin-1-yl)pyridin-2-yl)pyrimidine-4-carboxamide] came in with a half-maximal inhibitory concentration (IC50) of 7 µM and an inhibition at 100 µM above 25%. For the same molecule, the EMSA screening results in assay [1] is reported as “Positive (A compound showing >25% inhibition when tested at 100µM concentration is considered as "positive")”. For the same molecule, the IC50 in assay [2] (setting [3]) was 18300 nM.

On NC(11-55), `C[C@@H](NC(=O)c1nc(-c2ccc(C(F)(F)F)cn2)nc(O)c1O)C1CCCCC1` [Compound 36, (R)-N-(1-cyclohexylethyl)-5,6-dihydroxy-2-(5-(trifluoromethyl)pyridin-2-yl)pyrimidine-4-carboxamide] returned an IC50 of 22.5 µM and an inhibition at 100 µM above 25%. Also, the EMSA screening results in assay [1] is “Positive (A compound showing >25% inhibition when tested at 100µM concentration is considered as "positive")”. Besides, the half-maximal inhibitory concentration (IC50) in assay [2] (setting [3]) is 45400 nM.

Turning to `C[C@@H](NC(=O)c1nc(-c2ncccc2Cl)nc(O)c1O)C1CCCCC1` [Compound 33, (R)-2-(3-chloropyridin-2-yl)-N-(1-cyclohexylethyl)-5,6-dihydroxypyrimidine-4-carboxamide], on NC(11-55), the IC50 was 18 µM and the inhibition at 100 µM was above 25%. Moreover, in assay [1], the EMSA screening results was “Positive (A compound showing >25% inhibition when tested at 100µM concentration is considered as "positive")”. The IC50 in assay [2] (setting [3]) was above 50000 nM.

Consider `CCNCc1ccc(-c2nc(O)c(O)c(C(=O)N[C@H](C)C3CCCCC3)n2)nc1` [Compound 60, (R)-N-(1-cyclohexylethyl)-2-(5-((ethylamino)methyl)pyridin-2-yl)-5,6-dihydroxypyrimidine-4-carboxamide], for which the IC50 against NC(11-55) was 3.5 µM; in assay [2] (setting [3]) it was above 50000 nM. On NC(11-55), this molecule displayed an inhibition at 100 µM above 25%. The EMSA screening results in assay [1] is given as “Negative”.

For `C[C@@H](NC(=O)c1nc(-c2ccc(Cl)cn2)nc(O)c1O)C1CCCCC1` [Compound 49, (R)-2-(5-chloropyridin-2-yl)-N-(1-cyclohexylethyl)-5,6-dihydroxypyrimidine-4-carboxamide], the figures for the IC50 (at NC(11-55); in assay [2] (setting [3])) were 9 µM and 10900 nM, respectively. The same molecule displayed an inhibition at 100 µM against NC(11-55) above 25%.

Take `C[C@H](NC(=O)c1nc(-c2nccc3[nH]ccc23)nc(O)c1O)C1CCCCC1` [Compound 86, (S)-N-(1-cyclohexylethyl)-5,6-dihydroxy-2-(1H-pyrrolo[3,2-c]pyridin-4-yl)pyrimidine-4-carboxamide]: the IC50 on NC(11-55) (setting [5]) is 5.5 µM; in assay [2] (setting [3]) it was above 50000 nM. At NC(11-55), this molecule displayed an inhibition at 100 µM above 25%. The EMSA screening results in assay [1] is “Positive (A compound showing >25% inhibition when tested at 100µM concentration is considered as "positive")”.

On NC(11-55), `C[C@@H](NC(=O)c1nc(-c2cc3ccccc3cn2)nc(O)c1O)C1CCCCC1` [Compound 25, (R)-N-(1-cyclohexylethyl)-5,6-dihydroxy-2-(isoquinolin-3-yl)pyrimidine-4-carboxamide] displayed an IC50 of 3 µM and an inhibition at 100 µM above 25%. Further, the EMSA screening results in assay [1] was “Positive (A compound showing >25% inhibition when tested at 100µM concentration is considered as "positive")”. Besides, the IC50 in assay [2] (setting [3]) worked out at 64000 nM.

At NC(11-55), `C[C@@H](NC(=O)c1nc(-c2cccc(Cl)n2)nc(O)c1O)C1CCCCC1` [Compound 34, (R)-2-(6-chloropyridin-2-yl)-N-(1-cyclohexylethyl)-5,6-dihydroxypyrimidine-4-carboxamide] came in with an IC50 of 47.5 µM and an inhibition at 100 µM above 25%. The EMSA screening results in assay [1] is reported as “Negative”. In addition, the IC50 in assay [2] (setting [3]) was found to be 14500 nM.

`O=C(NC1CCCCC1)c1nc(-c2ccccn2)nc(O)c1O` [Compound 4, N-cyclohexyl-5,6-dihydroxy-2-(pyridin-2-yl)pyrimidine-4-carboxamide]: the IC50 against NC(11-55) was 320 µM; in assay [2] (setting [3]), above 50000 nM. On NC(11-55), this molecule returned an inhibition at 100 µM above 25%. Further, the EMSA screening results in assay [1] is recorded as “Negative”.

Turning to `C[C@@H](NC(=O)c1nc(-c2cc(N)ccn2)nc(O)c1O)C1CCCCC1` [Compound 48, (R)-2-(4-aminopyridin-2-yl)-N-(1-cyclohexylethyl)-5,6-dihydroxypyrimidine-4-carboxamide], the IC50 against NC(11-55) was 4 µM; in assay [2] (setting [3]), 9870 nM. Also, the inhibition at 100 µM against NC(11-55) was above 25%.

Regarding `O=C(NCC1CCC1)c1nc(-c2cc3ccccc3cn2)nc(O)c1O` [Compound 47, N-(cyclobutylmethyl)-5,6-dihydroxy-2-(isoquinolin-3-yl)pyrimidine-4-carboxamide], the IC50 was found to be 6.5 µM on NC(11-55) and 8930 nM in assay [2] (setting [3]). The inhibition at 100 µM at NC(11-55) is above 25%.
